The text below walks through data of patent US4994460A, “Agents for treatment of brain ischemia” (Bristol-Myers Squibb Co., priority 1990, dated 1991).

The structures appear in SMILES notation. Counter-ions that a name gives are not always drawn. A value given as a limit tells only on which side of the number the result lay.

One assay relates to hypoxia-induced death. As to the kind of experiment: Anoxic Nitrogen Test in Rats (survival after 1 min pure N2). The assay is classed as in vivo, male Sprague-Dawley rats. The settings on record: Rattus norvegicus, ip, Table 2; 40 mg/kg ip; read-out: Rating (survival). From the text: Most specifically, administration of the compounds of Formula I results in protecting against hypoxia-induced death in an anoxic nitrogen test in rats. This particular test identifies the neuro-protective effects of substances against lethal brain damages produced by a lack of oxygen consumption (anoxia). In this test procedure, control animals exposed for one minute to a pure nitrogen atmosphere will expire because of respiratory failure caused by irreversible damage to the brain respiratory center.
The animals utilized are male Sprague-Dawley rats (200-240 grams) housed four animals per cage in a normal controlled environment with unlimited access to food and water. Usually there are 8 animals per dose, however, 4 animals can be employed to obtain an initial impression of a compound's activity. Animals surviving the anoxic insult are sacrificed via CO2 inhalation following completion of the observation session (2 hr).
[…] The anoxic episode consists of placing up to 4 animals in the sealed test chamber (10" l×10" w×6" h) continuously flushed with pure N2 (4.5 grade) at a flow rate of 3 SCFM for 1 min. Animals are then promptly removed to normal atmosphere and observed for the 2 hour time period. Typically, animals become disoriented within 15 sec which leads into convulsions at 30 to 35 sec after which they remain motionless.
In spite of the fact that after the N2 exposure the heart is still beating, all control animals fail to gasp when removed from the chamber and usually expire within 3 minutes. Drug treated animals, however, still gasp or start gasping after being removed which is a good indication if an animal will survive the N2 exposure (1).
Results are recorded as: [formula] and are statistically evaluated using the Finney Dose Response program for determination of the ED50 and its corresponding 95% confidence limits.
Compounds of the present invention were rated at each dose level tested using the following rating scale:
+=weak activity (up to 25% survival)
++=moderate activity (25-50% survival)
+++=good activity (51-75% survival)
++++=very good activity (76-100%)
In the case of `O=S(=O)(CCCN1CCN(c2ncc(F)cn2)CC1)c1ccc(F)cc1` [Example 21, 1-[3-(4-Fluorophenylsulfonyl)propyl]-4-(5-fluoro-2-pyrimidinyl)piperazine], the responders at 40 mg/kg was less than 25%.
For the compound `O=C(CCCN1CCN(c2ncc(F)cn2)CC1)c1cccs1` [Example 12, 1-(2-Thienyl)-4-[4-(5-fluoro-2-pyrimidinyl)-1-piperazinyl]butanone], the responders at 40 mg/kg is less than 25%.
Consider `O=C(NC(CCCN1CCN(c2ncc(F)cn2)CC1)c1ccc(F)cc1)c1ccc(F)cc1` (centres unmarked) [Example 19, 1-[4-(4-Fluorobenzamido)-4-(4-fluorophenyl)butyl]-4-(5-fluoro-2-pyrimidinyl)piperazine], for which the responders at 40 mg/kg lay within 76 to 100%.
On to `Fc1cnc(N2CCN(CCCC3OCCO3)CC2)nc1` [Example 11, 1-[3-(1,3-dioxolan-2-yl)propyl]-4-(5-Fluoro-2-pyrimidinyl) piperazine], for which the responders at 40 mg/kg is less than 25%.
`O=C(CCCN1CCN(c2ncc(F)cn2)CC1)c1ccc(F)c2ccccc12` [Example 13, 1-(4-Fluoronaphth-1-yl)-4-[4-(5-fluoro-2-pyrimidinyl)-1-piperazinyl]butanon]: the responders at 40 mg/kg is 25 to 50%.
For `CC(=O)NC(CCCN1CCN(c2ncc(F)cn2)CC1)c1ccc(F)cc1` (centres unmarked) [Example 18, 1-[4-Acetamido-4-(4-fluorophenyl)butyl]-4-(5-fluoro-2-pyrimidinyl)piperazine monohydrochloride], the responders at 40 mg/kg was less than 25%.

The same assay, now with this note: Rattus norvegicus, ip, Table 2; 80 mg/kg ip; read-out: Rating (survival).
On to `OC(CCCN1CCN(c2ncc(F)cn2)CC1)C1CCCCC1` (centres unmarked) [Example 22, 1-Cyclohexyl-4-[4-(5-fluoro-2-pyrimidinyl)-1-piperazinyl]butanol], for which the responders at 80 mg/kg is 51 to 75%.
As for `O=S(=O)(NC(CCCN1CCN(c2ncc(F)cn2)CC1)c1ccc(F)cc1)c1ccc(F)cc1` (centres unmarked) [Example 20, 1-[4-(4-Fluorophenyl)-4-(4-fluorophenylsulfonamido)butyl]-4-(5-fluoro-2-pyrimidinyl)piperazine], the responders at 80 mg/kg lay in the range of 76 to 100%.
Same read-out and setting: with `O=C(CCCN1CCN(c2ncc(F)cn2)CC1)c1ccc(F)c2ccccc12` [Example 13, 1-(4-Fluoronaphth-1-yl)-4-[4-(5-fluoro-2-pyrimidinyl)-1-piperazinyl]butanon] the figure was 76 to 100%.

Staying with this assay, now noted: Rattus norvegicus, ip, Table 2; 100 mg/kg ip; read-out: Rating (survival).
Consider `OC(CCCN1CCN(c2ncc(F)cn2)CC1)c1ccc(F)c2ccccc12` (centres unmarked) [Example 23, 1-(4-Fluoronaphth-1-yl)-4-[4-(5-fluoro-2-pyrimidinyl)-1-piperazinyl]butanol], for which the responders at 100 mg/kg was 76 to 100%.

The assay is the same for the next values; noted with them: Rattus norvegicus, ip, Table 3; 40 mg/kg i.p. 60 minutes prior to anoxia testing; read-out: Anti-ischemic Rating.
`O=C(CCCN1CCN(c2ncc(F)cn2)CC1)C1CCCCC1` [Example 48]: the responders at 40 mg/kg lay within 76 to 100%.
Regarding `O=C(NC(CCCN1CCN(c2ncc(F)cn2)CC1)c1ccc(F)c2ccccc12)c1ccc(F)cc1` (centres unmarked) [Example 26], the responders at 40 mg/kg was in the range of 25 to 50%.
With `O=S(=O)(NC(CCCN1CCN(c2ncc(F)cn2)CC1)c1ccc(F)c2ccccc12)c1ccc(F)cc1` (centres unmarked) [Example 45], the responders at 40 mg/kg was less than 25%.
`O=C(NC(CCCN1CCN(c2ncc(F)cn2)CC1)c1ccc(F)cc1)c1ccc(F)c2ccccc12` (centres unmarked) [Example 44]: the responders at 40 mg/kg was 25 to 50%.
Regarding `Fc1cnc(N2CCN(CCCCc3ccc(F)c4ccccc34)CC2)nc1` [Example 28], the responders at 40 mg/kg was 51 to 75%.
With `O=C(NC(CCCN1CCN(c2ncc(F)cn2)CC1)C1CCCCC1)c1ccc(F)cc1` (centres unmarked) [Example 49], the responders at 40 mg/kg was less than 25%.
Take `O=C(NC(CCCN1CCN(c2ncc(F)cn2)CC1)c1ccc(F)cc1)c1ccccc1` (centres unmarked) [Example 43]: the responders at 40 mg/kg is 25 to 50%.
As for `Fc1cnc(N2CCN(CCCCC3CCCCC3)CC2)nc1` [Example 31], the responders at 40 mg/kg was in the range of 25 to 50%.
For `O=S(=O)(NC(CCCN1CCN(c2ncc(F)cn2)CC1)C1CCCCC1)c1ccc(F)cc1` (centres unmarked) [Example 30], the responders at 40 mg/kg was in the range of 25 to 50%.
On the same count and under the same terms, with `Fc1ccc(CCN2CCN(c3ncc(F)cn3)CC2)cc1` [Example 47] the figure was less than 25%; with `O=C(OC(CCCN1CCN(c2ncc(F)cn2)CC1)c1ccc(F)cc1)c1ccccc1` (centres unmarked) [Example 46], 25 to 50%.

Staying with this assay, now noted: Rattus norvegicus, ip; 40 mg/kg ip; read-out: Anti-ischemic Rating.
On to `NC(CCCN1CCN(c2ncc(F)cn2)CC1)c1ccc(F)c2ccccc12` (centres unmarked) [Example 41, 1-(4-Fluoro-1-naphthyl)-4-(4-(5-fluoro-2-pyrimidinyl)-1-piperazinyl) butylamine hydrochloride], for which the responders at 40 mg/kg lay in the range of 76 to 100%.
Regarding `OC(CCCN1CCN(c2ncc(F)cn2)CC1)(c1ccc(F)cc1)C1CCCCC1` (centres unmarked) [Example 37, 1-Cyclohexyl-1-(4-fluorophenyl)-4-(4-(5-fluoro-2-pyrimidinyl)-1-piperazinyl)-1-butanol], the responders at 40 mg/kg lay in the range of 51 to 75%.
Take `O=C(OC(CCCN1CCN(c2ncc(F)cn2)CC1)c1ccc(F)cc1)c1ccc(F)cc1` (centres unmarked) [Example 39, 1-(4-Fluorophenyl)-4-(4-(5-fluoro-2-pyrimidinyl)-1-piperazinyl)-1-butyl 4-fluorobenzoate hydrochloride]: the responders at 40 mg/kg lay within 51 to 75%.
For the compound `COC(CCCN1CCN(c2ncc(F)cn2)CC1)c1ccc(F)cc1` (centres unmarked) [Example 42, 1-[4-(4-Fluorophenyl)-4-methoxybutyl]-4-(5-fluoropyrimidin-2-yl) piperazine hydrochloride], the responders at 40 mg/kg fell in the range of 25 to 50%.
`[N-]=[N+]=NC(CCCN1CCN(c2ncc(F)cn2)CC1)c1ccc(F)c2ccccc12` (centres unmarked) [Example 40, 1-(4-Azido-4-(4-fluoro-1-naphthyl)-1-butyl)-4-(5-fluoro-2-pyrimidinyl)piperazine monohydrochloride]: the responders at 40 mg/kg was 25 to 50%.

Staying with this assay, now noted: Rattus norvegicus; Table 2; "^ 40^a" mg/kg ip, given 60 minutes prior to anoxia testing; read-out: Rating (survival).
With `Fc1ccc(SCCCN2CCN(c3ncc(F)cn3)CC2)cc1` [Example 10, 1-[3-(4-Fluorophenylthio)propyl]-4-(5-fluoro-2-pyrimidinyl) piperazine], the responders at 40 mg/kg is less than 25%.

The assay is the same for the next values; noted with them: Rattus norvegicus; ip; anoxic nitrogen test, 2 hr observation; 95% confidence limits in brackets; read-out: ED50 (19/20 C.L).
As to `CN(c1nc2ccccc2s1)C1CCN(CC(O)COc2ccc(F)cc2)CC1` (centres unmarked) [Sabeluzole], the ED50 was determined as 4.7 mg/kg.
As to `C[C@]12N[C@H](Cc3ccccc31)c1ccccc12` [(+)MK-801, reference compound], the ED50 worked out at 3.1 mg/kg.

A further assay has as its system animal models of stroke and brain infarction.
Assay: not given
The settings on record: Gotti et al., JPET 247/3, 1211-1221 (1988); cited from earlier work.
`CC(C(O)c1ccc(O)cc1)N1CCC(Cc2ccccc2)CC1` (centres unmarked) [ifenprodil]: the tissue sparing result is on record as “effective in tissue sparing”.

Test system in a further assay: not given
Assay: not given
To be noted: Wauquier et al., Drug Development Research 8/373-380 (1986); cited from earlier work.
For the compound `CN(c1nc2ccccc2s1)C1CCN(CC(O)COc2ccc(F)cc2)CC1` (centres unmarked) [Sabeluzole], the anticonvulsant properties entry is recorded as “anticonvulsant properties” and the antihypoxic activity entry is “potent antihypoxic agent”.
